Experimental data as given in patent US12161647B2, “Treating hearing loss” (Massachusetts Eye and Ear Infirmary, priority 2012, dated 2024).

Assays:
Assay type in all cases: in vivo, mouse
noise-damaged cochlea = experiment: ABR after systemic LY411575 in noise-damaged mice
Procedure: (§1) 4-week-old mice were exposed free-field, awake and unrestrained, in a small reverberant chamber (22). Acoustic trauma was produced by a 2 h exposure to an 8-16 kHz octave band noise presented at 116 dB SPL. The exposure stimulus was generated by a custom white-noise source, filtered (Brickwall Filter with a 60 dB/octave slope), amplified (Crown power amplifier), and delivered (JBL compression driver) through an exponential horn fitted securely to a hole in the top of a reverberant box.
[…] Hearing was measured by ABR at 1 d before, 2 d, 1, 2 week, 1, 2 and 3 months after noise exposure.
Mice were anesthetized with ketamine (100 mg/kg i.p.) and xylazine (20 mg/kg i.p.). Needle electrodes were inserted at vertex and pinna, with a ground near the tail. ABRs were evoked with 5-ms tone pips (0.5-ms rise-fall with a cos^2 onset envelope delivered at 35/s). The response was amplified, filtered and averaged in a LabVIEW-driven data-acquisition system. Sound level was raised in 5 dB steps from ≥10 dB below threshold <80 dB SPL. At each sound level, 1024 responses were averaged (with stimulus polarity alternated), using an “artifact reject,” whereby response waveforms were discarded when peak-to-peak response amplitude exceeded 15 μV. […] For amplitude versus level functions, the wave I peak was identified by visual inspection at each sound level and the peak-to-peak amplitude computed.

deafened ears = experiment: ABR and DPOAE in deafened ears after round window administration
Procedure: as §1
4-week-old mice weighing 12 to 16 g were used. Before surgery, the animals were anesthetized with ketamine (20 mg/kg, i.p.) and xylazine (100 mg/kg, i.p.), and an incision was made posterior to the pinna near the external meatus after local administration of lidocaine (1%). The otic bulla was opened to approach the round window niche. The end of a piece of PE 10 tubing (Becton Dickinson) was drawn to a fine tip in a flame and gently inserted into the round window niche. LY411575 was dissolved in DMSO and diluted 10-fold in polyethylene glycol 400 (Sigma) to a final concentration of 4 mM. This solution (total volume 1 μl) was injected into the round window niche of the left ear. Polyethylene glycol 400 with 10% DMSO was injected into the right ear as a control. The solution was administered for 2 min. This approach is presently used clinically (e.g. transtympanic injection of steroids for sudden hearing loss and gentamicin for severe balance disorders) and has the advantage of sparing the […] but still taking advantage of the local route provided by the round window membrane for delivery of drug into the inner ear (50). Gelatin was placed on the niche to maintain the solution, and the wound was closed.
Auditory brain stem responses (51, 52) were measured in each animal at 7 log-spaced frequencies (half-octave steps from 5.6 to 45.2 kHz) before and 1 d after noise exposure, and 1-week, 1-month, and 3-months after surgery. Mice were anesthetized with ketamine (100 mg/kg i.p.) and xylazine (20 mg/kg i.p.). Needle electrodes were inserted at vertex and pinna, with a ground near the tail. ABRs were evoked with 5-ms tone pips (0.5-ms rise-fall with a cos^2 onset envelope delivered at 35/s). The response was amplified, filtered and averaged in a LabVIEW-driven data-acquisition system. Sound level was raised in 5 dB steps from ≥10 dB below threshold <80 dB SPL. At each sound level, 1024 responses were averaged (with stimulus polarity alternated), using an “artifact reject,” whereby response waveforms were discarded when peak-to-peak response amplitude exceeded 15 μV. […] For amplitude versus level functions, the wave I peak was identified by visual inspection at each sound level and the peak-to-peak amplitude computed.

Atoh1 mRNA = experiment: qRT-PCR of Atoh1 in deafened mature cochlea after round window administration
Procedure: as §1
4-week-old mice weighing 12 to 16 g were used. Before surgery, the animals were anesthetized with ketamine (20 mg/kg, i.p.) and xylazine (100 mg/kg, i.p.), and an incision was made posterior to the pinna near the external meatus after local administration of lidocaine (1%). […]
The organs of Corti were dissected in HBSS (Invitrogen) and stored in RNAlater (Ambion) at −80° C. until further use. […] Samples were analyzed in 96 wells in triplicate by qPCR (Applied Biosystems 7900HT), and PCR thermal cycling conditions were as follows: initial denaturation at 95° C. for 2 min, denaturation at 95° C. for 15 s, annealing/extension at 60° C. for 1 min for 45 cycles. […] Relative gene expression was analyzed by using the ΔΔCT method. Gene expression was calculated relative to 18S RNA, and the amount of cDNA applied was adjusted so that the Ct value for 18S RNA was between 8 and 11. […]

## C[C@H](NC(=O)[C@@H](O)c1cc(F)cc(F)c1)C(=O)N[C@@H]1C(=O)N(C)c2ccccc2-c2ccccc21 [LY411575, N-2((2S)-2-(3,5-difluorophenyl)-2-hydroxyethanoyl)-N1-((7S)-5-methyl-6-oxo-6,7-dihydro-5H-dibenzo[b,d]azepin-7-yl)-l-alaninamide]
noise-damaged cochlea; 10 mg/kg body weight
  therapeutic benefit at lower dose: no therapeutic benefit
noise-damaged cochlea; oral 50 mg/kg for 5 d, 4, 8 and 16 kHz
  noise-induced ABR threshold shift: decreased
Deafened ears; 8, 11.33 and 16 kHz, 3 months
  ABR wave I amplitudes: increased
Deafened ears; 8, 11.33 and 16 kHz, 3 months after treatment vs 1 d after noise
  ABR threshold recoveries: significantly greater than control
Deafened ears; 8 kHz, 3 months after treatment, example mouse, control side 75 dB
  sound level at which the ABR peak could first be detected: 65 dB
Deafened ears; frequencies above 22.65 kHz, either ear
  ABR threshold recoveries at high frequencies: No threshold recoveries
Deafened ears; mouse, in vivo
  recoveries above the noise floor of DPOAE: no recoveries
Atoh1 mRNA; 1 d after LY411575 treatment, round window niche
  Atoh1 expression above the level post-noise exposure: 2.28 ×
Atoh1 mRNA; 3 d after treatment, p<0.05
  Atoh1 expression: remained elevated
